Source: ChEMBL document CHEMBL1201862, “PubChem BioAssay data set” (2004)
Values belong to the compound of their own block, whether it stands above or below them. Active and inactive are the calls of the source.

How the values were obtained:
[1] = target: DNA dC->dU-editing enzyme APOBEC-3G (Homo sapiens, UniProt Q9HC16); format: functional;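 also: Dose-response counterscreen measuring inhibition of APOBEC3G DNA deaminase activity, run while confirming APOBEC3A inhibitors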
[2] = target: DNA dC->dU-editing enzyme APOBEC-3A (Homo sapiens, UniProt P31941); assay: Dose Response confirmation of small molecule APOBEC3A DNA Deaminase Inhibitors via a fluorescence-based single-stranded DNA deaminase assay. [Related pubchem assays (depositor defined):AID493011, AID493024]; format: functional
Chain of DNA dC->dU-editing enzyme APOBEC-3A (P31941 whole entry): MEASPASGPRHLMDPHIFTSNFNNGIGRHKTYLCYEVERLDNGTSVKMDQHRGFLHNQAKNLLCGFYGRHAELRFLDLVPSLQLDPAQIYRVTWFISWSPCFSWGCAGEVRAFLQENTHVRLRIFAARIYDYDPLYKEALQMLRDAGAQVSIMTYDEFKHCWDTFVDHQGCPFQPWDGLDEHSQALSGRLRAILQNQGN

[3] = target: T1, High affinity choline transporter 1 (Homo sapiens, UniProt Q9GZV3); assay: human choline transporter blockers, potency – cell-based, 5-point CRC, membrane potential dye, dose response (AID 504840); format: functional
T1 sequence (Q9GZV3 whole entry): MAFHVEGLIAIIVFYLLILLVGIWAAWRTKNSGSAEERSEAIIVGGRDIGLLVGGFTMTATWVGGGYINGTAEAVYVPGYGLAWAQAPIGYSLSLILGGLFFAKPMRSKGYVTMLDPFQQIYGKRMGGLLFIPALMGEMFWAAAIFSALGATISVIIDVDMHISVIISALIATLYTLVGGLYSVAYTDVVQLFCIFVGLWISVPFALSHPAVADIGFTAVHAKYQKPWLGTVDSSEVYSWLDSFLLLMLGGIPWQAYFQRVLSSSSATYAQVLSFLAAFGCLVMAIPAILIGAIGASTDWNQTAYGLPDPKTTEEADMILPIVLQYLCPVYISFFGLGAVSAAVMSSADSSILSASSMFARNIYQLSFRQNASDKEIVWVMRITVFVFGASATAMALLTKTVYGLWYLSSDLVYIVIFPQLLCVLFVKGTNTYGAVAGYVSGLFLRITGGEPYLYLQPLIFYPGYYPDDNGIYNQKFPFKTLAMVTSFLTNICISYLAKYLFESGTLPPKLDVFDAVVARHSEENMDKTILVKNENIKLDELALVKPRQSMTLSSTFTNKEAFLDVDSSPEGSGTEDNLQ

[4] = target: T2, Short transient receptor potential channel 4 (Mus musculus, UniProt Q9QUQ5); assay: calcium entry via TRPC4 opening agents – cell-based, HEK293 TRPC4/mu-opioid, Fluo-4 calcium, dose response (AID 434937); format: functional
T2 sequence (Q9QUQ5 whole entry): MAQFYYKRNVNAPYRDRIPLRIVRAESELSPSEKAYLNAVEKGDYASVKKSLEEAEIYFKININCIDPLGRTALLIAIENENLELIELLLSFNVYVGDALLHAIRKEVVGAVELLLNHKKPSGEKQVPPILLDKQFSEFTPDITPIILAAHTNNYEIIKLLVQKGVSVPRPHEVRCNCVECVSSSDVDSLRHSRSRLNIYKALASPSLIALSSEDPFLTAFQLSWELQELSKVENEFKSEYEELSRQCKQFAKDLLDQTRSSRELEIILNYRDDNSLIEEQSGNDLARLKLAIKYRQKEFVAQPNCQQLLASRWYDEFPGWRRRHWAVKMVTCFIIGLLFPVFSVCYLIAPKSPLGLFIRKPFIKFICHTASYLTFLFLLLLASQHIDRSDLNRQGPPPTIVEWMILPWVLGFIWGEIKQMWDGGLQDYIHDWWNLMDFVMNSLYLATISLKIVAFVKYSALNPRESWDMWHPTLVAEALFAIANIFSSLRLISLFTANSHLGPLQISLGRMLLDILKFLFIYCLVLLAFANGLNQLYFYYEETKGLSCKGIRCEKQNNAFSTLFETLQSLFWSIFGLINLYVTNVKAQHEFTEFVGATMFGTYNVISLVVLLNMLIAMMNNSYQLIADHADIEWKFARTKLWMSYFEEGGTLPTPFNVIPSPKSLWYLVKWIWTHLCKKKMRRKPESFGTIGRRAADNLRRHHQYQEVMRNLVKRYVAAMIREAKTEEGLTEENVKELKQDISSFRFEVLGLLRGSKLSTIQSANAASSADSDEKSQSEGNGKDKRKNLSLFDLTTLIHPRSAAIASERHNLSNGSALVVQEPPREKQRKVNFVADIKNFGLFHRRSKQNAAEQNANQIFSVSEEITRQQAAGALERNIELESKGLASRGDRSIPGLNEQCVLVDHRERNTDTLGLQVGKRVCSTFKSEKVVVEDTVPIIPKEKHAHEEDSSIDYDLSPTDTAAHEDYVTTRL

[5] = target: FAD-linked sulfhydryl oxidase ALR (Homo sapiens, UniProt P55789); assay: ALR-catalysed DTT oxidation blockers – biochemical, H2O2 detection, luminescence, cherry-pick, dose response (AID 493248)
Chain of FAD-linked sulfhydryl oxidase ALR (P55789 whole entry): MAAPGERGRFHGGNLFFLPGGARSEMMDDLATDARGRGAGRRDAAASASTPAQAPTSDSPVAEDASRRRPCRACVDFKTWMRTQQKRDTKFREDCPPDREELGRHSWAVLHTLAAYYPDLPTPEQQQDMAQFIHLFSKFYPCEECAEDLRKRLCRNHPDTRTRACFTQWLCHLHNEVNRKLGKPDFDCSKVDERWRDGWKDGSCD

[6] = target: Prothrombin (Bos taurus, UniProt P00735); assay: thrombin protease inhibitors – biochemical, fluorescence polarization, uHTS hits, dose response (AID 602369); format: functional
[7] = target: 26S proteasome non-ATPase regulatory subunit 14 (Homo sapiens, UniProt O00487); assay: inhibition of proteasome subunit RPN11 – biochemical, fluorescence polarization, uHTS hits, confirmation (AID 602368); format: functional
Chain of 26S proteasome non-ATPase regulatory subunit 14 (O00487 whole entry): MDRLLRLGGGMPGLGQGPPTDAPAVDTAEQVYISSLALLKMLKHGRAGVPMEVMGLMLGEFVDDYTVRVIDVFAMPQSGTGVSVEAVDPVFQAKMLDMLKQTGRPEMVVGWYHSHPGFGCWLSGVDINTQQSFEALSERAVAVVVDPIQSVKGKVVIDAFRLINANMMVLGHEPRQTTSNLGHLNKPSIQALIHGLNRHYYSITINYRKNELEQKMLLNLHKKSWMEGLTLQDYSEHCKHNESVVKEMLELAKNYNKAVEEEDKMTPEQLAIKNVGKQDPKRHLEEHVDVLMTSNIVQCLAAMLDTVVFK

[8] = target: 72 kDa type IV collagenase (Homo sapiens, UniProt P08253); assay: Dose Response validation of uHTS RPN11 inhibitor hits using a MMP-2 Fluorescence assay.; format: functional
Chain of 72 kDa type IV collagenase (P08253 whole entry): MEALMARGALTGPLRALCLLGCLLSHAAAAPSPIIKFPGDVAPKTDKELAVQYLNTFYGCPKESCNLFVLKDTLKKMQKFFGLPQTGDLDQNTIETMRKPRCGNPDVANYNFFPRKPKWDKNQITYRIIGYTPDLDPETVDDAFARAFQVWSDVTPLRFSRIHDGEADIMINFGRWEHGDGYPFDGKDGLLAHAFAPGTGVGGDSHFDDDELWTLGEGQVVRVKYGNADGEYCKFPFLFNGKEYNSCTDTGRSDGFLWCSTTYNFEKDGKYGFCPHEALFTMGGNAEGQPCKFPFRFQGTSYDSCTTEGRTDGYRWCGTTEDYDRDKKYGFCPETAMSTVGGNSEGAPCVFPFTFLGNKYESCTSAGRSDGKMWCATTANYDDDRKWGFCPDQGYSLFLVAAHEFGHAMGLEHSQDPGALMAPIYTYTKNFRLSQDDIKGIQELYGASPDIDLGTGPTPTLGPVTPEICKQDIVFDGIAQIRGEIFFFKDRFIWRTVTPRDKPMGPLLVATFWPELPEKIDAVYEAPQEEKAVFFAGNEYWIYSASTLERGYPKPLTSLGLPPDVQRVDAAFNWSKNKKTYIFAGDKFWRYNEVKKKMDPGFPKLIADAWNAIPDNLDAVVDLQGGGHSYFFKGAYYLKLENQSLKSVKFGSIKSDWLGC

[9] = target: Dual specificity tyrosine-phosphorylation-regulated kinase 1A (Rattus norvegicus, UniProt Q63470); format: biochemical, Homo sapiens
[10] = target: T3, Nucleotide-binding oligomerization domain-containing protein 1 (Homo sapiens, UniProt Q9Y239); assay: blockers of NOD1 pathway activity – revised, SAR follow-up (AID 2333); format: functional
T3 sequence (Q9Y239 whole entry): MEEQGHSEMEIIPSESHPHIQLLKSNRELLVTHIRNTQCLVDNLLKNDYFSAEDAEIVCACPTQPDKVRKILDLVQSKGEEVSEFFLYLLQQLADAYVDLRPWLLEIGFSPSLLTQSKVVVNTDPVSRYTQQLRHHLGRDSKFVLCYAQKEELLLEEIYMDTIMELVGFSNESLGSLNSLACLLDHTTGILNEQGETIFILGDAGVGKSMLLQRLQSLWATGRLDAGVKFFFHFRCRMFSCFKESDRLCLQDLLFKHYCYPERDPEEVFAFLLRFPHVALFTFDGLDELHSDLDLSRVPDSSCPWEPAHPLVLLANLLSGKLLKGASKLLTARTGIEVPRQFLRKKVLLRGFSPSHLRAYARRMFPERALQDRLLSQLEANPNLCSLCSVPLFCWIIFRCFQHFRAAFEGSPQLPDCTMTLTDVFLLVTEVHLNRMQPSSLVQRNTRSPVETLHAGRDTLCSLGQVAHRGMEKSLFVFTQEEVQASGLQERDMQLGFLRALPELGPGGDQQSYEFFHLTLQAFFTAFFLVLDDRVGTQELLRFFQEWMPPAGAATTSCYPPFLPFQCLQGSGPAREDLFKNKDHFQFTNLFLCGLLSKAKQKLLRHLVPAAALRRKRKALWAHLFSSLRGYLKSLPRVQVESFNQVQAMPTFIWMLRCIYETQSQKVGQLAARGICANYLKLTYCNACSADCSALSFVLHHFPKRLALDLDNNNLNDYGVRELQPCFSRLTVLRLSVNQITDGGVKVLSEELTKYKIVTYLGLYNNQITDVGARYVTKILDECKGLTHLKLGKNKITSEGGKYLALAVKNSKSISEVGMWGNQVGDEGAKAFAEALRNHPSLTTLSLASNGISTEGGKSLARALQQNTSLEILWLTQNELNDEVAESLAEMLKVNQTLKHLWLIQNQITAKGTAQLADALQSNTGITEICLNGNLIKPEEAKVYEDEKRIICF

[11] = system: HEK293; assay: cells; format: functional, cell-based; details: Homo sapiens
[12] = target: Tumor necrosis factor (Homo sapiens, UniProt P01375); assay: analog potency on TNFa NF-kB signaling – cell-based, revised, SAR follow-up (AID 2337); format: functional
Chain of Tumor necrosis factor (P01375 whole entry): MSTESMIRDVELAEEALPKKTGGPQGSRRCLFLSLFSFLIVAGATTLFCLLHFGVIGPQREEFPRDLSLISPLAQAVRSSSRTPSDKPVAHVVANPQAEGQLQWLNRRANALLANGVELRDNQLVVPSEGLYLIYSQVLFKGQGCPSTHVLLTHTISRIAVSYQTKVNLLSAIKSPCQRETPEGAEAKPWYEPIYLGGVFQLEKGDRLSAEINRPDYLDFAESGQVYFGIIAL

[13] = system: HEK293; assay: cells; format: functional, cell-based; details: Homo sapiens; remark: listed apart in the source
[14] = system: HEK293; assay: cells; details: Homo sapiens
[15] = system: HEK293; assay: inhibition of NOD1-driven NF-kB reporter – cell-based, luminescence, uHTS, primary screen (AID 1578); format: functional; details: Homo sapiens
[16] = system: HEK293; assay: NOD2 signaling inhibitors in MDP-stimulated cells, cell-based, uHTS, luminescence (AID 2001); format: functional; details: Homo sapiens
[17] = target: SUMO-activating enzyme (Homo sapiens, UniProt Q9UBT2); assay: blockers of UBC9-mediated SUMO conjugation – biochemical, AlphaScreen, SUMOylation inhibitor project, confirmation (AID 2018); format: functional
Chain of SUMO-activating enzyme (Q9UBE0 whole entry): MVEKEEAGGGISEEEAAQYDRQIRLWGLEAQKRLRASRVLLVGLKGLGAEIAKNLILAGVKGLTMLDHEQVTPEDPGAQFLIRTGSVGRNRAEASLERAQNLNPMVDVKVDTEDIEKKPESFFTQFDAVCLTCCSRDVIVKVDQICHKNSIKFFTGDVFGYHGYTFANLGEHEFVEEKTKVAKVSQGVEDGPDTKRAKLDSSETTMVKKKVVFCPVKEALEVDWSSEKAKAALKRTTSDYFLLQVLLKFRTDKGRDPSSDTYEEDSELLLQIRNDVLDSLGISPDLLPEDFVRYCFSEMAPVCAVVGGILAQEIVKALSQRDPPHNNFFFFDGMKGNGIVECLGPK
Chain of SUMO-activating enzyme (Q9UBT2 whole entry): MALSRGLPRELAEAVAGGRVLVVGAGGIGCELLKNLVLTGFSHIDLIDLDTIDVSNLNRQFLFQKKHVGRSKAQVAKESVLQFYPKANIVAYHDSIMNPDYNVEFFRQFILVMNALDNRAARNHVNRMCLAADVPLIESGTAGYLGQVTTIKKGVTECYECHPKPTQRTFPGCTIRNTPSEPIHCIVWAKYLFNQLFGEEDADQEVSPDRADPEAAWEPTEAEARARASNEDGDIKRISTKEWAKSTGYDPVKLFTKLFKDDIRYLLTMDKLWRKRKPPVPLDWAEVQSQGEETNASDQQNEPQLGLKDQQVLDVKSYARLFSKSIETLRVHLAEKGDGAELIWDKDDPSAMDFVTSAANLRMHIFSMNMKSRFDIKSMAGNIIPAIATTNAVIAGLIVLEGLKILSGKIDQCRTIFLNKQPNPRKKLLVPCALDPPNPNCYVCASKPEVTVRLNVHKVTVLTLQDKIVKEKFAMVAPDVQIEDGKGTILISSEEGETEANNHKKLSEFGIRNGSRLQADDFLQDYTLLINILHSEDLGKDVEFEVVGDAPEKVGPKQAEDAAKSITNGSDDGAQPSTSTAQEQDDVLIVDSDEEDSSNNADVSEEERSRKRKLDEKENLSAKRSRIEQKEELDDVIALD

[18] = loss of viability in HepG2 cells – cell-based, CellTiter-Glo, cherry-picked, cytotoxicity control for Shn3 inhibitor project, dose response (AID 624134); format: functional
[19] = reduction of Shn3 3'UTR-driven luciferase in osteoblasts – cell-based, Clone20 osteoblasts, firefly luciferase, cherry-picked, dose response (AID 624132); format: functional;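 also: firefly luciferase luminescence from reporter carrying the Shn3 3'UTR in osteoblasts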
[20] = non-specific 3'UTR reporter inhibition in Clone20-Shn3RL – cell-based, Renilla luciferase, cherry-picked, counter-screen for Shn3 inhibitor project, dose response (AID 624133); format: functional
[21] = target: Melanocortin receptor 4 (Homo sapiens, UniProt P32245); format: functional, cell-based;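 also: Cell-based assay with luminescence read-out, confirmatory dose-response testing for agonist activity of biased ligands at MC4R; human U2OS cells with tagged receptor and beta-arrestin; potency of agonists that increase receptor coupling to beta-arrestin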
Chain of Melanocortin receptor 4 (P32245 whole entry): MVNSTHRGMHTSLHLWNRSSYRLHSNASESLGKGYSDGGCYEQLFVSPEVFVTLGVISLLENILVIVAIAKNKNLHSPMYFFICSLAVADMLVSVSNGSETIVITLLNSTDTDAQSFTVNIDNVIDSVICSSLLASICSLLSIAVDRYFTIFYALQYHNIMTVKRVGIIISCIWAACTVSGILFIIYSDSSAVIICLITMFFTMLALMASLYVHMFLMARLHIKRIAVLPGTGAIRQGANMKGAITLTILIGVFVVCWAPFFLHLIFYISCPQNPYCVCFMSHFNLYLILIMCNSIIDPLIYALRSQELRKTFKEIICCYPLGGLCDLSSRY

[22] = target: Cytochrome P450 3A4 (Homo sapiens, UniProt P08684); details: Potency;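 also: confirmatory qHTS run detecting inhibitors and substrates of CYP3A4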
Chain of Cytochrome P450 3A4 (P08684 whole entry): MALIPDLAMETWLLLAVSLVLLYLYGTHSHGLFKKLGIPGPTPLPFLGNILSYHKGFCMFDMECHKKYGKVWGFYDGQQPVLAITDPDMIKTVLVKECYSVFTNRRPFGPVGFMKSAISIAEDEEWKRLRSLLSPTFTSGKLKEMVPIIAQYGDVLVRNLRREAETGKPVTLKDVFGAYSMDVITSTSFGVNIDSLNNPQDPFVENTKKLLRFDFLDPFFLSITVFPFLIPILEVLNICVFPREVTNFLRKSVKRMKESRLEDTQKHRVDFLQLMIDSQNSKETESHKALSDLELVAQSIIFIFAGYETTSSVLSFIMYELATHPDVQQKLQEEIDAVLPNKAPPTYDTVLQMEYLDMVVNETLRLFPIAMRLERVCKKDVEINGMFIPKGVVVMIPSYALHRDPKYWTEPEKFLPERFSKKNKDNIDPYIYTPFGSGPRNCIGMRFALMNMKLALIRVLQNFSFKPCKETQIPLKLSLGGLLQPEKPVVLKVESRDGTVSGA

[23] = target: Eukaryotic translation initiation factor 4E (Mus musculus, UniProt P63073); assay: blockers of eIF4G binding by eIF4E – biochemical, TR-FRET, dose response (AID 855); format: functional;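 also: potency for disrupting eIF4E binding to eIF4GI seen as loss of FRET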
Chain of Eukaryotic translation initiation factor 4E (P63073 whole entry): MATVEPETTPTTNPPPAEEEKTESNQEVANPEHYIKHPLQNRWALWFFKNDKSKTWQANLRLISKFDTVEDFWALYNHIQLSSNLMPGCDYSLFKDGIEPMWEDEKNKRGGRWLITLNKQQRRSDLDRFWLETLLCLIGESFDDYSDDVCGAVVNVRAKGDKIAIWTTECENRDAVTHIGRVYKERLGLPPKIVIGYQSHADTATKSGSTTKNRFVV

Chain of DNA dC->dU-editing enzyme APOBEC-3G (Q9HC16 whole entry): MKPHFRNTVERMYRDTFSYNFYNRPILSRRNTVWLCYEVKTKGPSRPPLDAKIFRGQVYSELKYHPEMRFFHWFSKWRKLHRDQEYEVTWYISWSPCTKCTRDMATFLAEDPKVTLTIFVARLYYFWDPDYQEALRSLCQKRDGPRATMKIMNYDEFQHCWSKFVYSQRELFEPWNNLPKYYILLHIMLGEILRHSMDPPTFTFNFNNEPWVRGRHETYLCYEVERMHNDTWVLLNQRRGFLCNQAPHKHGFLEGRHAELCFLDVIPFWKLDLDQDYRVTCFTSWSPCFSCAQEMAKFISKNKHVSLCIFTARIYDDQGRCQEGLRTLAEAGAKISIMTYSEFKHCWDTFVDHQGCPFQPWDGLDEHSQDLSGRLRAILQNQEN

SMILES: CCc1n(CC(O)COCC2CC=CCC2)c2ccccc2[n+]1C (configuration not stated)
IC50 [1]: 3.7 µM (active) | IC50 [2]: 1.93 µM (active)

SMILES: Cc1c(NC(=O)c2nc[nH]n2)cccc1-c1nc2ccccc2s1
IC50 [1]: 2.54 µM (active) | IC50 [2]: 1.58 µM (active)

SMILES: CN(Cc1ccc(F)cc1)S(=O)(=O)c1nnc(NC(=O)c2ccccc2)s1
IC50 [10]: 11.1 µM (active) | IC50 [11]: > 20 µM (inactive) | IC50 [12]: 15.1 µM (active) | IC50 [13]: > 20 µM (inactive) | IC50 [14]: > 20 µM (inactive) | EC50 [15]: 3.08 µM (active) | IC50 [16]: 16.7 µM (inactive)

SMILES: Cc1cc(C)cc(-n2cccc2/C=C2/C(=N)N3C(=NC2=O)SN=C3S(C)(=O)=O)c1
IC50 [6]: 74.6 µM (active) | IC50 [7]: 37.6 µM (active) | IC50 [8]: 81.6 µM (active)

SMILES: CCCCNC(=O)c1ccc2c(OCC)n(CCCC)nc2c1
IC50 [3]: 13.1 µM (active)

SMILES: CCN1C(N(C)CCc2cccs2)=N[C@@H](c2ccccc2)C(C(=O)OC)=C1C
IC50 [1]: 8.2 µM (active) | IC50 [2]: 6.31 µM (active)

SMILES: Cc1nc(CN(C)C(=O)c2cc(COc3ccc4ncccc4c3)on2)cs1
IC50 [10]: > 20 µM (inactive) | IC50 [11]: > 20 µM (inactive) | IC50 [12]: > 20 µM (inactive) | IC50 [13]: 7.67 µM (active) | IC50 [14]: > 20 µM (inactive) | EC50 [15]: 2.75 µM (active) | IC50 [16]: 14.3 µM (inactive)

SMILES: CN1CCN(CC(=O)Nc2sc3c(c2C(=O)Nc2ccccc2)CCCC3)CC1
IC50 [1]: 5.56 µM (active) | IC50 [2]: 6.88 µM (active)

SMILES: COc1ccc(CNc2ncnc3sccc23)cc1OC
AC50 [18]: 68.3 µM (active) | AC50 [19]: 2.34 µM (active) | IC50 [10]: 9.64 µM (active) | IC50 [11]: > 20 µM (inactive) | IC50 [12]: 13 µM (active) | AC50 [20]: 5.11 µM (active) | IC50 [13]: 17.4 µM (active) | IC50 [14]: > 20 µM (inactive) | EC50 [15]: 5.37 µM (active) | IC50 [16]: > 20 µM (inactive)

SMILES: CCC(=O)[C@]12O[C@@]3(C4C(=O)OCCC41)N(CC)C(C)=C(C(=O)OC)C(c1ccccc1)N3C2=O (some centres not stated)
AC50 [22]: 5.01 µM (inconclusive)

SMILES: CCN1C[C@@]2(C)CC[C@@H](OC)[C@@]34C2C(O)[C@@]2(OCO[C@]25CC(OC)C2C[C@@]3(O)C5C2O)C14 (some centres not stated)
AC50 [22]: 39.8 µM (inconclusive)

The remaining lines, values ahead:

IC50 [3]: 18.2 µM (active)
SMILES: CCn1cc(CNC(=O)c2cc(COc3ccc(F)cc3F)on2)cn1

EC50 [4]: 0.133 µM (active)
SMILES: COc1ccc(C(CNCC(=O)Nc2ccccc2F)N(C)C)cc1 (configuration not stated)

AC50 [5]: 0.598 µM (active) | IC50 [6]: 86.9 µM (active) | IC50 [7]: 26.2 µM (active) | IC50 [8]: > 100 µM (inactive)
SMILES: Cc1ccc(-n2cccc2/C=C2/C(=N)N3C(=NC2=O)SN=C3S(C)(=O)=O)cc1

AC50 [9]: 6.39 µM (active)
SMILES: COc1ccc2cc(-c3cccnc3)ncc2c1

IC50 [6]: 14.8 µM (active) | IC50 [7]: 22.8 µM (active) | IC50 [8]: > 100 µM (inactive)
SMILES: C(=C\c1ccco1)/C1=NN(c2ccccc2)C(c2ccco2)C1 (configuration not stated)

EC50 [4]: 4.73 µM (active)
SMILES: CN1CCN(c2ccc(C(F)(F)F)cc2NC(=O)Nc2ccccc2)CC1

IC50 [17]: 20.4 µM (active)
SMILES: COc1ccccc1NC(=O)c1sc2ncn(CC(=O)Nc3ccccc3)c(=O)c2c1C

IC50 [3]: 13.8 µM (active)
SMILES: Cc1ccc2cc3c(NS(=O)(=O)c4cccc5nonc45)nn(CC(C)C)c3nc2c1

EC50 [4]: 5.31 µM (active)
SMILES: Fc1ccc(-c2nnc(CN3CCN(c4ncc(C(F)(F)F)cc4Cl)CC3)o2)cc1

EC50 [4]: 10.6 µM (active)
SMILES: Fc1ccc(C2CCNCC2COc2ccc3c(c2)OCO3)cc1 (configuration not stated)

EC50 [21]: > 89.2 µM (inactive)
SMILES: COc1ccccc1NC(=O)Nc1nc(C(N)Cc2ccc(Cl)cc2)cs1 (configuration not stated)

EC50 [21]: > 89.2 µM (inactive)
SMILES: CC1(C)Oc2ccc3ccc(=O)oc3c2C(/C=N/c2ccc(O)cc2)=C1O

IC50 [23]: > 64 µM (inactive) | EC50 [21]: > 89.2 µM (inactive)
SMILES: CCn1c(SCC(=O)Nc2ccc(C(C)=O)cc2)nc2nc3c(cc2c1=O)CCCC3
